Measured values taken from patent publication US20260132165A1, “MODIFIED NUCLEOSIDE ANALOGUE AND USE THEREOF, AND NUCLEOSIDE ANALOGUE-CONTAINING DOUBLE-STRANDED OLIGONUCLEOTIDE AND USE THEREOF” (RIGERNA THERAPEUTICS (BEIJING) CO., LTD., priority 2023, published 2026).
Strand notation (5' to 3'): a small letter for the sugar, then the base; units joined by * are phosphorothioate-linked, units joined directly phosphodiester-linked; [ ] holds rarer units or linkages, { } end groups; capitals alone tell only the bases. [Uhd] = commercial nucleoside analogue vector Uhd (Shanghai Hongene), the reference conjugate, placed in the sense strand; [NM031] = nucleoside analogue NM031 of the disclosure, C16 lipid conjugate (uridine-based); {VP} = vinylphosphonate on the antisense 5' end; e = 2'-O-(2-methoxyethyl) (MOE); m = 2'-O-methyl; f = 2'-fluoro

Columns and labels:
target gene SOD1 [1] = assay: Test Example 4: lipid conjugated siRNA sequences with different carbon chain lengths, SOD1 in mouse brain, lateral ventricle administration; format: in vivo, C57BL/6j mice; set-up: Right hemisphere Mean value of inhibition rate / Left hemisphere Mean value of inhibition rate: unit not given here; settings: D5; for Left hemisphere Mean value of inhibition rate: left hemisphere (non-administration side); for Left hemisphere Mean value of inhibition rate / Right hemisphere Mean value of inhibition rate: lateral ventricle; for Right hemisphere Mean value of inhibition rate: right hemisphere (administration side)
Protocol: 6-8 Week-old C57BL/6j mice were randomly grouped by body weight. Mice in each group were administered with siRNA by lateral ventricle administration, with an administration dose per mouse depending on a specific test. Taking Bregma in mouse brain as point 0 (origin), coordinates of right ventricle were found using the cerebral stereotaxic apparatus and position was marked on surface of skull (position of lateral ventricle was AP (anteroposterior, bregma anterior and posterior): −0.58 mm, ML (mediolateral, left and right of middle raphe): −1.2 mm, DV (dorsoventral, up and down cerebral dura mater plane): −2.2 mm). A dental electric drill was used to drill in the skull above a position of interest, and then medicament was injected into the lateral ventricle by a micro-dosing pump, wherein a total injection volume was 5 μL, and injection duration was 10 min. Needle was retained for 5 min after completion of injection, and then slowly withdrawn. Afterwards, needle hole was sealed with biomedical glue, and then head skin was adhered. After animals woke up, the animals were returned back to animal house and further fed. PBS control group was administered with the same volume of siRNA-free PBS solution. The day of administration was recorded as 0 day (D0), and the mice were sacrificed at observation point after the administration. Different parts of brain region were respectively taken and stored in the RNAlater.
(§1) RNA extraction: the above tissue samples were taken out from the RNAlater, and smashed for 60 s in Tissuelyser type II full-automatic tissue homogenizer, and total RNAs of various tissue samples were extracted using the full-automatic nucleic acid extraction instrument and the nucleic acid extraction kit from Zhejiang Hanwei Science and Technology Co. Ltd. according to methods described in instructions.
(§2) Reverse transcription reaction: 1 μg of the extracted total RNAs of the tissue samples were taken, and configured into 20 μL of reverse transcription system according to a method described in kit instructions by using a reverse transcription kit (Reverse Transcription System, A3500) from Promega Corporation and selecting Oligo (dT)15 reverse transcription primers, and the reverse transcription reaction was completed. After the reaction was ended, 80 μL of RNase-Free water was added into the reverse transcription system to provide cDNA solution for Real-time PCR detection.
(§3) Real-time PCR detection: 20 μL of Real-time PCR reaction system per PCR detection well was configured according to a method described in kit instructions using SYBR™ Select Master Mix (Catalog number: 4472908) reagent from ABI company. Each detection system contained 5 μL of cDNA template obtained from the above reverse transcription reaction, 10 μL of SYBR™ Select Master Mix, 0.5 μL of 10 μM upstream primers, 0.5 μL of 10 μM downstream primers, and 4 μL of RNase-Free H2O. The configured reaction system was subjected to Real-time PCR amplification on ABI StepOnePlus PCR instrument by a three-step method, wherein an amplification procedure was pre-denaturation at 95° C. for 10 min, then denaturation at 95° C. for 30 s, annealing at 60° C. for 30 s, and extension at 72° C. for 30 s; and processes of denaturation, annealing, and extension were repeated for 40 cycles. Gene expression differences were calculated by the ΔΔCt method after completion of the procedure.
In the real-time fluorescence quantitative PCR method, relative quantitative calculation of remaining expression level and inhibition rate of gene mRNA of interest in various test groups was performed by the ΔΔCt method, and the calculation method is as follows: […]

target gene SOD1 [2] = assay: Test Example 12: inhibitory activity of lipid conjugated siRNA sequence on SOD1 in mouse eyes (intravitreal administration); format: in vivo, C57BL/6J mice; settings: intravitreal, right eye, 7.5 μg per mouse, D14
Protocol: as §1, §2, §3
(§4) In the real-time fluorescence quantitative PCR method, relative quantitative calculation of remaining expression level and inhibition rate of gene mRNA of interest in various test groups was performed by the ΔΔCt method, and the calculation method is as follows:
The present test example evaluated, by an evaluation method for inhibitory activity on a target gene in mice, the inhibitory activity of siRNA sequence RZ899091 with the sense strand with the NM074 conjugation at Position 4 and siRNA reference sequence RX899121 without vector conjugation on the target gene SOD1 of interest in mice.
6-8 Week-old C57BL/6J mice were randomly grouped by body weight, 5 in each group and 3 groups in total. Mice in each group were administered with the above siRNA conjugate by intravitreal administration to right eyes of the mice, with an administration dose of 7.5 μg per mouse, and an administration volume of 2 μL. PBS control group was administered with the same volume of siRNA conjugate-free PBS solution. The day of administration was recorded as D0, and the mice were sacrificed at D14 after administration. Administration-side ocular retina, choroid, cornea, sclera and other tissues were respectively taken and stored in the RNAlater. RNA extraction, reverse transcription, and real-time fluorescence quantitative detection were performed on various tissues according to the above method, and gene expression differences were calculated by the above ΔΔCt method.

target gene SOD1 [3] = assay: Test Example 5: inhibitory activity of lipid conjugated siRNA sequences on SOD1 by intrathecal administration to rats; format: in vivo, SD rats; set-up: key to Lumbar segmen Mean value of inhibition rate / Cortex Mean value of inhibition rate / Thoracic segment Mean value of inhibition rate / Cervical segment Mean value of inhibition rate / Cerebellum Mean value of inhibition rate / Hippocampus Mean value of inhibition rate: inhibition rate of SOD1 mRNA, calculated by the ΔΔCt method; settings: intrathecal, 900 μg per rat, D7; for Cortex Mean value of inhibition rate: cerebral cortex; for Cervical segment Mean value of inhibition rate: spinal cord cervical segment; for Lumbar segmen Mean value of inhibition rate: spinal cord lumbar segment; for Thoracic segment Mean value of inhibition rate: spinal cord thoracic segment
Protocol: 6-8 Week-old SD rats were randomly grouped by body weight. Rats in each group were administered with siRNA by intrathecal administration, with an administration dose of 900 μg per rat. Injection was administered from rat spinal cord L5-L6, with an administration volume of 40 μL. Needle was retained for 2 min after completion of injection, and then slowly withdrawn. PBS control group was administered with the same volume of siRNA conjugate-free PBS solution. The day of administration was recorded as 0 day (D0), and the rats were sacrificed at observation point after administration. Different segments of spinal cord and different regions of brain were respectively taken and stored in the RNAlater.
as §1, §2, §3, §4
The present example evaluated, by an evaluation method for inhibitory activity on a target gene by intrathecal administration to rats, the inhibitory activity of siRNA sequence RZ899060 with the sense strand with the NM031 conjugation at Position 4 and vector-free siRNA sequence RZ899056, and Uhd conjugated siRNA reference sequence RZ899055 on the target gene SOD1 of interest in spinal cord and brain of rats.
6-8 Week-old SD rats were randomly grouped by body weight, 5 per group, 4 groups in total. Rats in each group were dosed with the above siRNA conjugates by intrathecal administration, with an administration dose of 900 μg per rat, and an administration volume of 40 μL. PBS control group was administered with the same volume of siRNA conjugate-free PBS solution. The day of administration was recorded as 0 day (D0), and the rats were sacrificed on D7 after administration. […]

Row | Substance | Left hemisphere Mean value of inhibition rate (target gene SOD1 [1]; 150 μg per mouse) | Right hemisphere Mean value of inhibition rate (target gene SOD1 [1]; 150 μg per mouse) | Cerebellum Mean value of inhibition rate (target gene SOD1 [3]) | Cortex Mean value of inhibition rate (target gene SOD1 [3]) | Hippocampus Mean value of inhibition rate (target gene SOD1 [3]) | Cervical segment Mean value of inhibition rate (target gene SOD1 [3]) | Lumbar segmen Mean value of inhibition rate (target gene SOD1 [3]) | Thoracic segment Mean value of inhibition rate (target gene SOD1 [3]) | further results
1 | RX599002: vector-free siRNA sequence; SEQ ID NO: 17 / 24 (sense mU*mU*mUmUmAmAfUfCfCfUmCmAmCmUmCmUmAmAmA; antisense {VP}-mU*fU*mUmAmGfAmGmUfGmAmGmGmAfUeUfAmAmAmA*mU*mG) [reference compound] | 55.55 | 74.62 | – | – | – | – | – | – | –
2 | RX899121: siRNA reference sequence without vector conjugation; SEQ ID NO: 25 / 23 (sense mU*mU*mUmUmAmAfUfCfCfUmCmAmCmUmCmUmAmAmA; antisense {VP}-mU*fU*mUmAmGfAmGmUmGmAmGfGmAfUeUfAmAmAmA*mU*mG) [reference compound] | – | – | – | – | – | – | – | – | Choroid % Mean value of inhibition rate (target gene SOD1 [2]; choroid): 3.16%; Cornea and sclera % Mean value of inhibition rate (target gene SOD1 [2]; cornea and sclera): 5.35%; Kidney % Mean value of inhibition rate (target gene SOD1 [2]; kidney): 2.89%; Liver % Mean value of inhibition rate (target gene SOD1 [2]; liver): 5.35%; Retina % Mean value of inhibition rate (target gene SOD1 [2]; retina): 17.47%
3 | RZ899055: Uhd conjugated siRNA reference sequence; SEQ ID NO: 4 / 22 (sense mU*mU*mU[Uhd]mAmAfUfCfCmUmCmAmCmUmCmUmAmAmA; antisense {VP}-mU*fU*mUmAmGfAmGmUmGmAmGmGmAfUmUfAmAmAmA*mU*mG) | – | – | 68.43 | 41.47 | 48.56 | 81.31 | 87.46 | 91.10 | –
4 | RZ899056: vector-free siRNA sequence; SEQ ID NO: 1 / 22 (sense mU*mU*mUmUmAmAfUfCfCmUmCmAmCmUmCmUmAmAmA; antisense {VP}-mU*fU*mUmAmGfAmGmUmGmAmGmGmAfUmUfAmAmAmA*mU*mG) | – | – | 50.22 | 33.88 | 41.25 | 70.86 | 87.58 | 89.69 | –
5 | RZ899077: siRNA sequence with the sense strand with the NM201 (C22) conjugation at Position 4; SEQ ID NO: 19 / 24 (sense UUUNAAUCCUCACUCUAAA; antisense UUUAGAGUGAGGAUUAAAAUG; NM201 (C22) conjugate at sense position 4; modified_base 1..2 OTHER; 2'-methoxy and 5'-thiophosphate modified nucleotides; modified_base 3 OTHER; 2'-methoxy modified nucleotide; modified_base 4 OTHER; n is the synthetic nucleotide analog NM201 as described in the disclosure.; modified_base 5..6 OTHER; 2'-methoxy modified nucleotides; modified_base 7..10 OTHER; 2'-fluoro modified nucleotides; modified_base 11..19 OTHER; 2'-methoxy modified ; modified_base 1 OTHER; 2'-methoxy and 5'-thiovinylphosphonate modified nucleotide; modified_base 2 OTHER; 2'-fluoro and 5'-thiophosphate modified …) | 32.81 | 43.33 | – | – | – | – | – | – | –
6 | RZ899092: siRNA sequence with the sense strand with the NM031 (C16) conjugation at Position 4; SEQ ID NO: 14 / 23 (sense mU*mU*mU[NM031]mAmAfUfCfCfUmCmAmCmUmCmUmAmAmA; antisense {VP}-mU*fU*mUmAmGfAmGmUmGmAmGfGmAfUeUfAmAmAmA*mU*mG) | 60.45 | 79.45 | – | – | – | – | – | – | inhibitory activity compared with the vector-free siRNA sequence RX599002 (target gene SOD1 [1]; left and right hemisphere, lateral ventricle 150 μg per mouse): superior inhibitory activity; activity compared with Uhd conjugated reference sequence RZ899093 and NM200 (C22) conjugated reference sequence RZ899076 (target gene SOD1 [1]; right hemisphere (administration side) and left hemisphere (non-administration side), 150 μg per mouse): substantially comparable activity in the right hemisphere
